Among the data in ChEMBL document CHEMBL1141818, “Annonaceous acetogenins: recent progress” (J Nat Prod, 1999) are EC50, LC50 and ED50 values, retold here.

Molecules are shown by their SMILES. Converted amounts (≈) assume the structure as drawn. Some results are limits rather than exact numbers.

One may read the LC50 as the concentration that kills 50% of the test population.

Data set [1] relates to PC-3. Description: Cytotoxicity against human PC-3 cells. It is filed as functional. As to conditions: for EC50: Homo sapiens, PC-3, read-out: ED50 (the source's name).
Data set [2] has as its system MIA PaCa-2. The data set is described as follows: Cytotoxicity against human MIA PaCa2 cells. To be noted: for EC50: Homo sapiens, MIA PaCa-2, read-out: ED50 (the source's name). It is filed as functional.
Data set [3] in a line: Toxicity in brine shrimp. The class given is organism-based. To be noted: artemia, in vivo.
The test system of data set [4] is A549. The data set is described as follows: Cytotoxicity against human A549 cells. The class given is functional. To be noted: for EC50: Homo sapiens, A549, read-out: ED50 (the source's name).
For data set [5], the system named is MCF7. Description: Cytotoxicity against human MCF7 cells. It is filed as functional. To be noted: for EC50: Homo sapiens, MCF7, read-out: ED50 (the source's name).
In data set [6] the test system is HT-29. Description: Cytotoxicity against human HT-29 cells. It is filed as functional. As to conditions: for EC50: Homo sapiens, HT-29, read-out: ED50 (the source's name).
The test system of data set [7] is A498. The data set is described as follows: Cytotoxicity against human A-498 cells. The class given is functional. To be noted: for EC50: Homo sapiens, A498, read-out: ED50 (the source's name).

In the case of `CCCCCCCCCCCC[C@@H](O)[C@H]1CC[C@H]([C@H](O)CCCCC[C@@H](O)CCCCCC[C@@H]2CC(CC(C)=O)C(=O)O2)O1` (mixture of isomers), the EC50 is 2.2 µg/mL in data set [1]; 0.0045 µg/mL in data set [2]; 1.9 µg/mL in data set [4]; 1.7 µg/mL in data set [5]; 1.4 µg/mL in data set [6]; 1.5 µg/mL in data set [7]. Moreover, in data set [3], the LC50 stood at 2.7 µg/mL.
For `CCCCCCCCCCCC[C@@H](O)[C@H]1CC[C@H]([C@H](O)CCCCCC[C@H](O)CCCCC[C@@H]2CC(CC(C)=O)C(=O)O2)O1` (mixture of isomers), the EC50 in data set [1] was 1 µg/mL; in data set [2] it was 0.68 µg/mL; in data set [4], 2.6 µg/mL; in data set [5] it was 3.2 µg/mL; in data set [6], 0.26 µg/mL; in data set [7], 1.4 µg/mL. This compound returned a median lethal concentration (LC50) in data set [3] of 0.31 µg/mL.
For the compound `CCCCCCCCCC[C@@H](O)[C@H]1CC[C@H]([C@H]2CC[C@H]([C@H](O)CCCCCC(=O)CCCC[C@@H]3CC(CC(C)=O)C(=O)O3)O2)O1` (mixture of isomers), the EC50 in data set [1] is 1.1 µg/mL; in data set [2], 1.2 µg/mL; in data set [4], 0.0057 µg/mL; in data set [5], 0.26 µg/mL; in data set [6], 0.004 µg/mL; in data set [7], 0.46 µg/mL. The compound further yielded a median lethal concentration (LC50) in data set [3] of 0.67 µg/mL.
As to `CCCCCCCCCCCC/C=C\CC[C@@H](O)[C@H]1CC[C@H]([C@H](O)CC[C@H](O)CCCCC[C@H]2CC(CC(C)=O)C(=O)O2)O1` (mixture of isomers), the EC50 in data set [1] worked out at 1.5 µg/mL; in data set [2] it was 0.045 µg/mL; in data set [4] it was 1.8 µg/mL; in data set [5], 3.7 µg/mL; in data set [6] it was 2.9 µg/mL; in data set [7] it was 2.2 µg/mL. This compound also displayed an LC50 in data set [3] below 0.3 µg/mL.
Regarding `CCCCCCCCCC[C@H](O)[C@@H](O)CCCC[C@H]1CC[C@H]([C@H]2CC[C@H]([C@H](O)CCCCC[C@@H](O)CC3=C[C@H](C)OC3=O)O2)O1` (stereo in doubt; 21) [GLACIN B], the ED50 in data set [1] was 5.6 ×10⁻² ug/ml; in data set [2], 1.5 ×10⁻² ug/ml; in data set [4], 1.3 µg/mL (≈ 2.03 µM); in data set [5] it was 5.2 ×10⁻² ug/ml; in data set [6] it was 8.7 ×10⁻² ug/ml. In data set [3], this compound gave an LC50 of 0.27 µg/mL (≈ 0.423 µM). In addition, the EC50 in data set [7] was found to be 2.6 µg/mL (≈ 4.07 µM).
For the compound `CCCCC[C@H](O)[C@H](O)CCC[C@H](O)[C@H]1CC[C@H]([C@H]2CC[C@H]([C@H](O)CCCCCCCCCCCCC3=C[C@H](C)OC3=O)O2)O1` (stereo in doubt; 91) [PURPUREDIOLIN], the ED50 is 1.1 µg/mL (≈ 1.72 µM) in data set [1]; 3 µg/mL (≈ 4.7 µM) in data set [2]; 1.6 µg/mL (≈ 2.5 µM) in data set [4]; 2.5 ×10⁻⁴ ug/ml in data set [5]; 1.5 µg/mL (≈ 2.35 µM) in data set [7]. Further, in data set [3], the median lethal concentration (LC50) turned out to be 0.43 µg/mL (≈ 0.673 µM). The EC50 in data set [6] came to 0.0046 µg/mL (≈ 0.0072 µM).
Regarding `CCCCCCCCCCCC[C@H](O)[C@H]1CC[C@H]([C@H](O)CCCC[C@H](O)CCCCCCC[C@@H](O)CC2=C[C@H](C)OC2=O)O1` [ANNOGLACIN A], the EC50 in data set [1] worked out at 0.002 µg/mL (≈ 0.0032 µM); in data set [4], 0.0053 µg/mL (≈ 0.00848 µM); in data set [6] it was 0.0053 µg/mL (≈ 0.00848 µM); in data set [7] it was 0.9 µg/mL (≈ 1.44 µM). For the same compound, the ED50 turned out to be 5.1 ×10⁻⁷ ug/ml in data set [2] and 9.6 ×10⁻⁴ ug/ml in data set [5]. The LC50 in data set [3] turned out to be 0.49 µg/mL (≈ 0.784 µM).
Take `CCCCCCCCCCCC[C@@H](O)[C@H]1CC[C@H]([C@H](O)CCCC[C@H](O)CCCCCCC[C@@H](O)CC2=C[C@H](C)OC2=O)O1` [ANNOGLACIN B]: the ED50 in data set [1] was determined as 8.4 ×10⁻⁴ ug/ml; in data set [2], 1.2 ×10⁻⁶ ug/ml; in data set [5], 6.2 ×10⁻⁴ ug/ml. Besides, in data set [3], the LC50 was 0.17 µg/mL (≈ 0.272 µM). Moreover, the results for the EC50 in data set [4], in data set [6] and in data set [7] were 0.0028 µg/mL (≈ 0.00448 µM), 0.0053 µg/mL (≈ 0.00848 µM) and 0.4 µg/mL (≈ 0.64 µM), respectively.
In the case of `CCCCCCCCCCCC/C=C\CC[C@@H](O)[C@H](O)CCCCCCC(=O)CCCCCCCC1=C[C@H](C)OC1=O` [ANNOJAHNIN], the EC50 in data set [1] is 0.016 µg/mL (≈ 0.0271 µM); in data set [2] it was 0.023 µg/mL (≈ 0.0389 µM); in data set [4], 1.5 µg/mL (≈ 2.54 µM); in data set [5], 2.8 µg/mL (≈ 4.74 µM); in data set [6], 0.059 µg/mL (≈ 0.0998 µM); in data set [7] it was 4.9 µg/mL (≈ 8.29 µM). In addition, the LC50 in data set [3] was determined as 11 µg/mL (≈ 18.6 µM).
With `CCCCCCCCCCCC[C@@H](O)[C@H]1CC[C@H]([C@H](O)CCC[C@@H](O)[C@@H](O)CCCCC[C@@H](O)CC2=C[C@H](C)OC2=O)O1` [ANNOMURICIN E], the EC50 in data set [1] was determined as 0.15 µg/mL (≈ 0.245 µM); in data set [2], 0.24 µg/mL (≈ 0.392 µM); in data set [4], 0.11 µg/mL (≈ 0.179 µM); in data set [5], 0.15 µg/mL (≈ 0.245 µM); in data set [6], 0.67 µg/mL (≈ 1.09 µM); in data set [7], 1.4 µg/mL (≈ 2.28 µM). Moreover, the 50% lethal concentration (LC50) in data set [3] stood at 18.4 µg/mL (≈ 30 µM).
Take `CCCCCCCCCCCC[C@@H](O)[C@H](O)CC[C@H](O)[C@@H]1CC[C@@H](C[C@H](O)CCCCC[C@@H](O)CC2=C[C@H](C)OC2=O)O1` [ANNOPENTOCIN A]: the EC50 in data set [1] amounted to 1.1 µg/mL (≈ 1.79 µM); in data set [2], 0.036 µg/mL (≈ 0.0587 µM); in data set [4] it was 0.17 µg/mL (≈ 0.277 µM); in data set [5], 18 µg/mL (≈ 29.4 µM); in data set [6], 1.6 µg/mL (≈ 2.61 µM); in data set [7] it was 0.61 µg/mL (≈ 0.995 µM). Besides, in data set [3], the LC50 is 8.9 µg/mL (≈ 14.5 µM).
Consider `CCCCCCCCCCCC[C@H](O)[C@@H](O)CC[C@H](O)[C@@H]1CC[C@@H](C[C@H](O)CCCCC[C@@H](O)CC2=C[C@H](C)OC2=O)O1` [ANNOPENTOCIN B], for which the EC50 in data set [1] stood at 0.21 µg/mL (≈ 0.343 µM); in data set [2] it was 0.16 µg/mL (≈ 0.261 µM); in data set [4] it was 0.027 µg/mL (≈ 0.0441 µM); in data set [5], 3.6 µg/mL (≈ 5.87 µM); in data set [6], 1.6 µg/mL (≈ 2.61 µM); in data set [7], 0.38 µg/mL (≈ 0.62 µM). The same compound registered an LC50 in data set [3] of 0.11 µg/mL (≈ 0.179 µM).
Regarding `CCCCCCCCCCCC[C@H](O)[C@H](O)CC[C@H](O)[C@@H]1CC[C@@H](C[C@H](O)CCCCC[C@@H](O)CC2=C[C@H](C)OC2=O)O1` [ANNOPENTOCIN C], the EC50 in data set [1] worked out at 0.23 µg/mL (≈ 0.375 µM); in data set [2], 0.43 µg/mL (≈ 0.702 µM); in data set [4], 0.021 µg/mL (≈ 0.0343 µM); in data set [5], 0.3 µg/mL (≈ 0.489 µM); in data set [6], 1.2 µg/mL (≈ 1.96 µM); in data set [7] it was 0.26 µg/mL (≈ 0.424 µM). In data set [3], the 50% lethal concentration (LC50) was determined as 14 µg/mL (≈ 22.8 µM).
Turning to `CC[C@H](O)[C@H](O)CCCCCC[C@H](O)[C@H]1CC[C@H]([C@H]2CC[C@H]([C@H](O)CCCCCCCCCCCCC3=C[C@H](C)OC3=O)O2)O1` [BULLATETROCIN], the EC50 is above 1 µg/mL in data set [1]; above 1 µg/mL in data set [2]; 0.35 µg/mL (≈ 0.548 µM) in data set [4]; 0.5 µg/mL (≈ 0.783 µM) in data set [5]; 0.33 µg/mL (≈ 0.516 µM) in data set [6]; above 1 µg/mL in data set [7]. The compound also came in with a median lethal concentration (LC50) in data set [3] of 0.31 µg/mL (≈ 0.485 µM).
For `CCCCCCCCCC[C@H](O)[C@H](O)CCCC[C@H]1CC[C@H]([C@H]2CC[C@H]([C@H](O)CCCCC[C@@H](O)CC3=C[C@H](C)OC3=O)O2)O1` [GLABRACIN A], the EC50 in data set [1] is 1.1 µg/mL (≈ 1.72 µM); in data set [2], 1.8 µg/mL (≈ 2.82 µM); in data set [7] it was 0.001 µg/mL (≈ 0.00157 µM). Besides, the LC50 in data set [3] was 0.13 µg/mL (≈ 0.203 µM). Further, the ED50 in data set [4] is recorded as 2.8 ×10⁻⁶ ug/ml; in data set [5] it was 4.2 ×10⁻⁶ ug/ml; in data set [6] it was 5.7 ×10⁻⁶ ug/ml.
